# Test results reported in US6916803B2, “3-(Heteroaryl acetamido)-2-oxo-azetidine-1-sulfonic acids derivatives as antibacterial agents” (Pantherix, Ltd., priority 2000, dated 2005).
# Read-outs that look alike come from different tables or passages of the source.
# What was measured:
# Test in all cases: MIC, standard microbroth dilution method (NCCLS)
# Assay type in all cases: cell-based
# P. aeruginosa PD 2721 = details: Pseudomonas aeruginosa, PD2721
# Experimental: (§1) The compounds of the present invention were tested for minimum inhibitory concentration (MIC) against the bacteria listed in Table-1 according to the standard microbroth dilution method as described in NCCLS document. The minimum inhibitory concentration is expressed in μg/ml.
# K pneumoniae K-1150 = test system: K pneumoniae K-1150
# Experimental: as §1
# E. coli TEM-2 = details: Escherichia coli, TEM2
# Experimental: as §1
# C. freundii K 500 = details: Citrobacter freundii, K500
# Experimental: as §1
# P. aeruginosa S 1598 = details: Pseudomonas aeruginosa, S1598
# Experimental: as §1
# M Morganii K 1250 = test system: M Morganii K 1250
# Experimental: as §1
# E. cloaacae S 480-2 = test system: E. cloaacae S 480-2
# Experimental: as §1
# P. aeruginosa CL 1267 = details: Pseudomonas aeruginosa, CL1267
# Experimental: as §1
Structure (SMILES),MIC (P. aeruginosa PD 2721) [µg/mL],MIC (K pneumoniae K-1150) [µg/mL],"MIC (E. coli TEM-2; E. coli TEM-2, read-out: MIC) [µg/mL]",MIC (C. freundii K 500) [µg/mL],MIC (P. aeruginosa S 1598) [µg/mL],MIC (M Morganii K 1250) [µg/mL],MIC (E. cloaacae S 480-2) [µg/mL],MIC (P. aeruginosa CL 1267) [µg/mL],MIC (E. coli TEM-2) [µg/mL]
"C[C@H]1[C@H](NC(=O)/C(=N\OC(C)(C)C(=O)O)c2csc(N)n2)C(=O)N1S(=O)(=O)O [Aztreonam, reference compound]",64,0.06,0.06,0.13,32,0.06,0.13,,
"NC(=O)OC[C@@H]1[C@H](NC(=O)/C(=N\OCC(=O)O)c2csc(N)n2)C(=O)N1S(=O)(=O)O [Carumonam, reference compound]",32,0.06,0.06,0.06,8,0.06,0.06,8,
C[C@H]1[C@H](NC(=O)/C(=N\OCc2cc(=O)c(O)cn2O)c2csc(N)n2)C(=O)N1S(=O)(=O)[O-].[Na+] [Example 1],4,0.13,,0.13,0.13,0.06,0.06,0.06,0.06
"NC(=O)OCC1C(NC(=O)/C(=N\OCc2cc(=O)c(O)cn2O)c2csc(N)n2)C(=O)N1S(=O)(=O)[O-].[Na+] (stereo not drawn) [Example 2, 3-[2-(2-Aminothiazol-4-yl)-(Z)-2-{(1,5-dihydroxy-4-pyridon-2-ylmethoxy)imino}-acetamido]-4-carbamoyloxymethyl-2-azetidinone-1-sulfonic acid, sodium salt]",128,0.06,,0.5,0.13,0.13,0.25,0.06,0.06
"Nc1nc(/C(=N/OCc2cc(=O)c(O)cn2O)C(=O)NC2C(=O)N(S(=O)(=O)[O-])C2CF)cs1.[Na+] (stereo not drawn) [Example 3, 3-[2-(2-Aminothiazol-4-yl)-(Z)-2-{(1,5-dihydroxy-4-pyridon-2-yl-methoxy)imino}-acetamido]-4-fluoromethyl-2-azetidinone-1-sulfonic acid, sodium salt]",32,0.06,,0.5,0.13,0.06,2,0.06,0.06
